Results reported in ChEMBL document CHEMBL5579794, “Improved synthesis and evaluation of preclinical pharmacodynamic parameters of a new monocyclic β-lactam DPI-2016” (Bioorg Med Chem Lett, 2024).

Assays:
Pseudomonas aeruginosa [1] = assay: Antibacterial activity against Pseudomonas aeruginosa infected in BalbC mouse model of Septicaemia infection assessed as survival rate at 64 mg/kg administration starting at 0.5 to 2 hrs post infection and measured after 5 days relative to control; type: functional; details: 120 h, time 5 day
Pseudomonas aeruginosa [2] = assay: Antibacterial activity against Pseudomonas aeruginosa infected in BalbC mouse model of Septicaemia infection assessed as survival rate at 128 mg/kg administration starting at 0.5 to 2 hrs post infection and measured after 1 day relative to control; type: functional; details: 24 h
Pseudomonas aeruginosa [3] = assay: Antibacterial activity against Pseudomonas aeruginosa infected in BalbC mouse model of Septicaemia infection assessed as survival rate at 64 mg/kg administration starting at 0.5 to 2 hrs post infection and measured after 3 days relative to control; type: functional; details: 72 h, time 3 day
Pseudomonas aeruginosa [4] = assay: Antibacterial activity against Pseudomonas aeruginosa infected in BalbC mouse model of Septicaemia infection assessed as survival rate at 128 mg/kg administration starting at 0.5 to 2 hrs post infection and measured after 3 days relative to control; type: functional; details: 72 h, time 3 day
Pseudomonas aeruginosa [5] = assay: Antibacterial activity against Pseudomonas aeruginosa infected in BalbC mouse model of Septicaemia infection assessed as survival rate at 64 mg/kg administration starting at 0.5 to 2 hrs post infection and measured after 4 days relative to control; type: functional; details: 96 h, time 4 day
Pseudomonas aeruginosa [6] = assay: Antibacterial activity against Pseudomonas aeruginosa infected in BalbC mouse model of Septicaemia infection assessed as survival rate at 128 mg/kg administration starting at 0.5 to 2 hrs post infection and measured after 4 days relative to control; type: functional; details: 96 h, time 4 day
Pseudomonas aeruginosa [7] = assay: Antibacterial activity against Pseudomonas aeruginosa infected in BalbC mouse model of Septicaemia infection assessed as survival rate at 128 mg/kg administration starting at 0.5 to 2 hrs post infection and measured after 2 days relative to control; type: functional; details: 48 h, time 2 day
Pseudomonas aeruginosa [8] = assay: Antibacterial activity against Pseudomonas aeruginosa infected in BalbC mouse model of Septicaemia infection assessed as survival rate at 64 mg/kg administration starting at 0.5 to 2 hrs post infection and measured after 1 day relative to control; type: functional; details: 24 h
Pseudomonas aeruginosa [9] = assay: Antibacterial activity against Pseudomonas aeruginosa infected in BalbC mouse model of Septicaemia infection assessed as survival rate at 64 mg/kg administration starting at 0.5 to 2 hrs post infection and measured after 6 days relative to control; type: functional; details: 144 h, time 6 day
Pseudomonas aeruginosa [10] = assay: Antibacterial activity against Pseudomonas aeruginosa infected in BalbC mouse model of Septicaemia infection assessed as survival rate at 64 mg/kg administration starting at 0.5 to 2 hrs post infection and measured after 2 days relative to control; type: functional; details: 48 h, time 2 day
Pseudomonas aeruginosa [11] = assay: Antibacterial activity against Pseudomonas aeruginosa infected in BalbC mouse model of Septicaemia infection assessed as survival rate at 64 mg/kg administration starting at 0.5 to 2 hrs post infection and measured after 7 days relative to control; type: functional; details: 168 h, time 7 day
Pseudomonas aeruginosa [12] = assay: Antibacterial activity against Pseudomonas aeruginosa infected in BalbC mouse model of Septicaemia infection assessed as survival rate at 128 mg/kg administration starting at 0.5 to 2 hrs post infection and measured after 7 days relative to control; type: functional; details: 168 h, time 7 day
Pseudomonas aeruginosa [13] = assay: Antibacterial activity against Pseudomonas aeruginosa infected in BalbC mouse model of Septicaemia infection assessed as survival rate at 128 mg/kg administration starting at 0.5 to 2 hrs post infection and measured after 6 days relative to control; type: functional; details: 144 h, time 6 day
Pseudomonas aeruginosa [14] = assay: Antibacterial activity against Pseudomonas aeruginosa infected in BalbC mouse model of Septicaemia infection assessed as survival rate at 4 mg/kg administered 30 mins post infection and measured after 1 day relative to control; type: functional; details: 24 h
H9c2 = assay: Cytotoxicity against rat H9c2 cells at upto 300 ug/ml relative to control; type: toxicity, cell-based; details: up to 300 µg/mL
Pseudomonas aeruginosa [15] = assay: Antibacterial activity against Pseudomonas aeruginosa infected in BalbC mouse model of Septicaemia infection assessed as survival rate at 8 mg/kg administered 30 mins post infection and measured after 6 days relative to control; type: functional; details: 144 h, time 6 day
[16] = Plasma protein binding in mouse at 1 uM incubated for 6 hrs by LC-MS/MS analysis; type: ADME, cell-free; details: read-out: PPB (converted)
H9 = assay: Cytotoxicity against human H9 cells at upto 300 ug/ml relative to control; type: toxicity, cell-based; details: up to 300 µg/mL
Pseudomonas aeruginosa [17] = assay: Antibacterial activity against Pseudomonas aeruginosa infected in BalbC mouse model of Septicaemia infection assessed as survival rate at 8 mg/kg administered 30 mins post infection and measured after 2 days relative to control; type: functional; details: 48 h, time 2 day
[18] = Stability in human plasma at 1 uM measured upto 120 mins by LC-MS/MS analysis; type: ADME, cell-free; details: 2 h
Pseudomonas aeruginosa [19] = assay: Antibacterial activity against Pseudomonas aeruginosa infected in BalbC mouse model of Septicaemia infection assessed as survival rate at 8 mg/kg administered 30 mins post infection and measured after 4 days relative to control; type: functional; details: 96 h, time 4 day
Pseudomonas aeruginosa [20] = assay: Antibacterial activity against Pseudomonas aeruginosa infected in BalbC mouse model of Septicaemia infection assessed as survival rate at 4 mg/kg administered 30 mins post infection and measured after 7 days relative to control; type: functional; details: 168 h, time 7 day
Pseudomonas aeruginosa [21] = assay: Antibacterial activity against Pseudomonas aeruginosa infected in BalbC mouse model of Septicaemia infection assessed as survival rate at 8 mg/kg administered 30 mins post infection and measured after 5 days relative to control; type: functional; details: 120 h, time 5 day
[22] = Cytotoxicity against mouse BALB/3T3 clone A31 cells at upto 300 ug/ml relative to control; type: toxicity, cell-based; details: up to 300 µg/mL
Pseudomonas aeruginosa [23] = assay: Antibacterial activity against Pseudomonas aeruginosa infected in BalbC mouse model of Septicaemia infection assessed as survival rate at 8 mg/kg administered 30 mins post infection and measured after 1 day relative to control; type: functional; details: 24 h
NRK-52E = assay: Cytotoxicity against rat NRK-52E cells at upto 300 ug/ml relative to control; type: toxicity, cell-based; details: up to 300 µg/mL
Pseudomonas aeruginosa [24] = assay: Antibacterial activity against Pseudomonas aeruginosa infected in BalbC mouse model of Septicaemia infection assessed as survival rate at 4 mg/kg administered 30 mins post infection and measured after 5 days relative to control; type: functional; details: 120 h, time 5 day
Pseudomonas aeruginosa [25] = assay: Antibacterial activity against Pseudomonas aeruginosa infected in BalbC mouse model of Septicaemia infection assessed as survival rate at 4 mg/kg administered 30 mins post infection and measured after 2 days relative to control; type: functional; details: 48 h, time 2 day
[26] = Volume of distribution in male Sprague-Dawley rat at 2 mg/kg by LC-MS/MS analysis; type: ADME, organism-based; details: in vivo
J774.A1 = assay: Cytotoxicity against mouse J774.A1 cells at upto 300 ug/ml relative to control; type: toxicity, cell-based; details: up to 300 µg/mL
Pseudomonas aeruginosa [27] = assay: Antibacterial activity against Pseudomonas aeruginosa infected in BalbC mouse model of Septicaemia infection assessed as survival rate at 4 mg/kg administered 30 mins post infection and measured after 4 days relative to control; type: functional; details: 96 h, time 4 day
Pseudomonas aeruginosa [28] = assay: Antibacterial activity against Pseudomonas aeruginosa infected in BalbC mouse model of Septicaemia infection assessed as survival rate at 8 mg/kg administered 30 mins post infection and measured after 7 days relative to control; type: functional; details: 168 h, time 7 day
HepG2 = assay: Cytotoxicity against human HepG2 cells at upto 300 ug/ml relative to control; type: toxicity, cell-based; details: up to 300 µg/mL
Pseudomonas aeruginosa [29] = assay: Antibacterial activity against Pseudomonas aeruginosa infected in BalbC mouse model of Septicaemia infection assessed as survival rate at 4 mg/kg administered 30 mins post infection and measured after 3 days relative to control; type: functional; details: 72 h, time 3 day
[30] = Half life in male Sprague-Dawley rat at 2 mg/kg by LC-MS/MS analysis; type: ADME, organism-based; details: in vivo

C[C@H]1[C@H](NC(=O)/C(=N\OC(C)(C)C(=O)O)c2csc(N)n2)C(=O)N1S(=O)(=O)O [AZTREONAM]
90%: survival at 128 mg/kg (Pseudomonas aeruginosa [4]) | survival at 128 mg/kg (Pseudomonas aeruginosa [6]) | survival at 128 mg/kg (Pseudomonas aeruginosa [7]) | survival at 128 mg/kg (Pseudomonas aeruginosa [12]) | survival at 128 mg/kg (Pseudomonas aeruginosa [13])
60%: survival at 64 mg/kg (Pseudomonas aeruginosa [1]) | survival at 64 mg/kg (Pseudomonas aeruginosa [3]) | survival at 64 mg/kg (Pseudomonas aeruginosa [5]) | survival at 64 mg/kg (Pseudomonas aeruginosa [9]) | survival at 64 mg/kg (Pseudomonas aeruginosa [10]) | survival at 64 mg/kg (Pseudomonas aeruginosa [11])
100%: survival at 128 mg/kg (Pseudomonas aeruginosa [2]) | survival at 64 mg/kg (Pseudomonas aeruginosa [8])

Cc1sc(N)nc1/C(=N/O[C@@H](COc1ccc(C(=N)N[C@@H]2CCNC2)cc1)C(=O)O)C(=O)N[C@@H]1C(=O)N(OS(=O)(=O)O)C1(C)C
24 min: half-life [30]
60%: survival at 4 mg/kg (Pseudomonas aeruginosa [14]) | survival at 8 mg/kg (Pseudomonas aeruginosa [15]) | survival at 8 mg/kg (Pseudomonas aeruginosa [17]) | survival at 8 mg/kg (Pseudomonas aeruginosa [19]) | survival at 8 mg/kg (Pseudomonas aeruginosa [21]) | survival at 4 mg/kg (Pseudomonas aeruginosa [25]) | survival at 8 mg/kg (Pseudomonas aeruginosa [28])
0.37 L/kg: Vd [26]
30%: survival at 4 mg/kg (Pseudomonas aeruginosa [20]) | survival at 4 mg/kg (Pseudomonas aeruginosa [24]) | survival at 4 mg/kg (Pseudomonas aeruginosa [27]) | survival at 4 mg/kg (Pseudomonas aeruginosa [29])
> 80%: Activity (H9c2) | Activity (H9) | Activity [22] | Activity (NRK-52E) | Activity (J774.A1) | Activity (HepG2)
Stable: Stability [18]
0.532: fraction unbound at 6 h, 1 µM [16]
100%: survival at 8 mg/kg (Pseudomonas aeruginosa [23])
